Consider 24 compounds from ChEMBL document CHEMBL1201862, “PubChem BioAssay data set” (2004).

SMILES strings stand for the structures. Activity calls are given as the source filed them.

For assay [1], the target named is DNA dC->dU-editing enzyme APOBEC-3G (Homo sapiens, UniProt Q9HC16). Briefly: Dose Response confirmation of small molecule APOBEC3G DNA Deaminase Inhibitors via a fluorescence-based single-stranded DNA deaminase assay. [Related pubchem assays (depositor defined):AID493012, AID493028]. It is filed as functional.
Assay [2] has as its target Peroxisome proliferator-activated receptor gamma/Nuclear receptor coactivator 2 (Homo sapiens, UniProt P37231). Format: functional.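 Further: agonist potency for raising coactivator recruitment to the receptor.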
In assay [3] the target is Peroxisome proliferator-activated receptor gamma/Nuclear receptor coactivator 1 (Homo sapiens, UniProt P37231). Format: functional.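 Further: agonist potency as compounds enhance coactivator SRC-1 recruitment to PPARgamma.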
The target in assay [4] is Peroxisome proliferator-activated receptor gamma/Nuclear receptor coactivator 3 (Homo sapiens, UniProt P37231). It is filed as functional.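 Further: agonist potency for raising coactivator recruitment to the receptor.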
The target in assay [5] is Major prion protein (Homo sapiens, UniProt P04156). It is filed as functional, cell-based.
The nature of assay [6]: cells.
Assay [7] is described as follows: cells. It is filed as functional, cell-based.
A short description of assay [8]: cells. It is filed as functional, cell-based. The source holds these as a separate data set.
Assay [9] addresses T1, CAAX prenyl protease 2 (Saccharomyces cerevisiae S288c, UniProt Q03530).
T1 sequence (Q03530 whole entry): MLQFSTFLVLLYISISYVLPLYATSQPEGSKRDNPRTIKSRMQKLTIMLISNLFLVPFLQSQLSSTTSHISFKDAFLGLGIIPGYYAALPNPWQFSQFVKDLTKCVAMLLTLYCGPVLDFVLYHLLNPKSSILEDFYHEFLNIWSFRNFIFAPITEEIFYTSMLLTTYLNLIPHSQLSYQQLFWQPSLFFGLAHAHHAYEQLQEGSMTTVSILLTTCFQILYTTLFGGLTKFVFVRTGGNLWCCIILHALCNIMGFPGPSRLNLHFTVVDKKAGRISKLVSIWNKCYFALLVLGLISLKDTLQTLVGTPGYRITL
Format: biochemical.

Assay [10] is described as follows: inhibitors of intracellular T. cruzi replication, confirmation, NIH3T3 host cells, beta-gal luminescence (AID 2044).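 Further: intracellular parasites grown in NIH/3T3 mouse fibroblasts as host cells; luminescent beta-galactosidase reporter signal from transgenic T. cruzi replicating inside host cells; inhibitors lower the luminescence signal.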 It is filed as functional, cell-based.
Assay [11] can be described thus: cytotoxicity toward NIH3T3 fibroblasts, dose response, counter-screen, cell-based, ATP luminescence, mouse fibroblasts (AID 2010).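 Further: cells exposed to compound for about 90 hours before reading.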 Format: functional. (Counterscreens check selectivity or assay interference.)
Assay [12] has as its target Voltage-dependent T-type calcium channel subunit alpha-1H (Homo sapiens, UniProt O95180). Format: functional.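 Further: channel activity triggered by adding a high calcium stimulation buffer.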
Assay [13] concerns the target Beta-galactosidase (Escherichia coli, UniProt Q8VNN2). Briefly: Dose response counterscreen for EBI2 assay utilizing the enzyme, b-galactosidase. It is filed as functional.
Assay [14] can be described thus: cells. Format: functional, cell-based. This is another data set of the same source.
Assay [15] is described as follows: cells. It is filed as functional, cell-based. This is another data set of the same source.
The nature of assay [16]: HEp-2 cell cytotoxicity, dose response, cytotoxicity control for RSV inhibitor project, HTS (AID 2410). Format: functional. Particulars: human respiratory syncytial virus.
The nature of assay [17]: A cytotoxicity screen of small molecule inhibitors of the PhoP region in Salmonella typhi identified in the primary screen. [Related pubchem assays: 1850, 1864, 1985 ]. It is filed as functional.
Assay [18] has as its target T2, Heat shock factor protein 1 (Mus musculus, UniProt P38532).
T2 sequence (P38532 whole entry): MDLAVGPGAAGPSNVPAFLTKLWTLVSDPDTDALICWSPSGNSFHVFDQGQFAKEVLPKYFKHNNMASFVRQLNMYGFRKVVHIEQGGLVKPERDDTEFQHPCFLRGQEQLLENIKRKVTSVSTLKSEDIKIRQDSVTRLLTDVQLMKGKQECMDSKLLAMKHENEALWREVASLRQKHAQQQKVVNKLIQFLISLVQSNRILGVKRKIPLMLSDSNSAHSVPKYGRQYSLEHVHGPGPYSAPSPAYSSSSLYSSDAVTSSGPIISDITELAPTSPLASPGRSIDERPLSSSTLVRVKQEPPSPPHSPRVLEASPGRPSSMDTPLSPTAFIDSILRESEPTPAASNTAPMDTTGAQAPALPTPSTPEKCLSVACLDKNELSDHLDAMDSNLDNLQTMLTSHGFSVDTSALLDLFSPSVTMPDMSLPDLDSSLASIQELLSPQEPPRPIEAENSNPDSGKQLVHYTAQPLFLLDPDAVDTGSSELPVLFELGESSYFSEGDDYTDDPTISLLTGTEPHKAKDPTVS
Briefly: HSF1 potentiators in luciferase reporter cells, confirmation, cell-based, NIH3T3, luminescence, dose retest (AID 435004).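 Further: stress induced by proteasome inhibitor MG132 added 30 min after compound; luciferase reporter driven by HSF1 response element in NIH3T3 cells; actives raise luminescence as potentiators of the MG132 stress response.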 Format: functional. Background: Reporter assays use an easily measured gene product as a stand-in for the process of interest.

The test system of assay [19] is Streptococcus sp. 'group A'. Briefly: growth inhibition of control SK(-) GAS strain, dose response, counter-screen for streptokinase expression inhibitor project, luminescence, kanamycin, BacTiterGlo, confirmation (AID 1900). It is filed as functional, organism-based.
The target in assay [20] is T3, Streptokinase A (Streptococcus pyogenes serotype M1, UniProt P10520).
T3 sequence (P10520 whole entry): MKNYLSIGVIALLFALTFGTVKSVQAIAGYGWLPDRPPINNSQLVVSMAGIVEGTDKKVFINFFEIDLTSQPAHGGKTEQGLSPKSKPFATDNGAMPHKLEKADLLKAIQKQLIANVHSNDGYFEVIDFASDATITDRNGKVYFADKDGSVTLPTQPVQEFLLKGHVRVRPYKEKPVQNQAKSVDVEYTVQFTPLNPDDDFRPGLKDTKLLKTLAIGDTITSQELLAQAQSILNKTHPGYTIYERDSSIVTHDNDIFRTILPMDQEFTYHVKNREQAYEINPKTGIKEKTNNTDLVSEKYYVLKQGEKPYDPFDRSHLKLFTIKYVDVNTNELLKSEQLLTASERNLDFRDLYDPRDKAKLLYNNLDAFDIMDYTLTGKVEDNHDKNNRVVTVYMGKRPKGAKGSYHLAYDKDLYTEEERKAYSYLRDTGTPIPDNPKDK
Briefly: S. pyogenes streptokinase expression inhibitors, potency, dose response, plasminogen activation absorbance, OD405 (AID 1914).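 Further: secreted streptokinase activity via plasminogen activation per viability signal from cell pellet.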 Format: functional, Streptococcus pyogenes M1 GAS.

Assay [21] has as its system Streptococcus. Briefly: Group A Streptococcus viability loss, dose response, counter-screen for streptokinase expression inhibitor project, luminescence, BacTiterGlo (AID 1915).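 Further: potency for reduction of bacterial viability or growth.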 It is filed as functional, organism-based.
The test system of assay [22] is H9c2. Briefly: cells. Particulars: Rattus norvegicus, H9c2, Myocardium. Format: functional, cell-based.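 Further: confirmatory concentration-response retest of ultra-high-throughput screening hits for modulation of myocardial damage; cell death induced by hydrogen peroxide oxidative stress; compound pretreatment for 60 min then peroxide exposure for 2 h; potency is for protecting the cells against peroxide damage rather than for killing them.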
Assay [23] concerns the target T4, Endoribonuclease toxin MazF (Escherichia coli K-12, UniProt P0AE70).
T4 sequence (P0AE70 whole entry): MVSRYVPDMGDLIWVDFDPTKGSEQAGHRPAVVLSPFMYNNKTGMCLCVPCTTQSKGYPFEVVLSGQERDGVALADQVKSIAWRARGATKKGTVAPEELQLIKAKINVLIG
Briefly: MazF toxin RNase activators, dose response, biochemical, fluorescence, single-stranded RNA substrate, uHTS hits (AID 588481). Format: functional.

In assay [24] the target is T4, Endoribonuclease toxin MazF. Briefly: fluorescent RNA oligo signal without MazF, dose response, counter-screen for MazEF activator project, biochemical, fluorescence, single-stranded RNase substrate (AID 588502). Format: functional.

In general, IC50 refers to the concentration that inhibits the measured activity by half. On to `Cc1cc(C)c(C#N)c(=N)o1`, for which the IC50 in assay [1] is 37.4 µM (active).

For orientation: EC50 means the midpoint of the concentration-response curve. As for `Cc1nnc(SCc2ccccc2)n1N`, the concentration for a half-maximal effect (EC50) in assay [2], in [3] and in [4] was > 79.4 µM (not active) in each case.

In the case of `CCN(CC)C(=O)CSc1nc(O)c(Cc2ccccc2)c(=O)n1-c1ccccc1`, the results for the IC50 in assay [5] and in [6] were 14.6 µM (inactive) and > 138 µM (inactive), respectively.

`Cc1cccc(N(CC(=O)N2CCN(c3ccc(F)cc3)CC2)S(C)(=O)=O)c1C`: the EC50 in assay [2], in assay [3] and in assay [4] was > 79.4 µM (not active) in each case.

On to `CC(=O)Nc1ccc(-c2ccnc(-c3ccc(NC(C)=O)cc3)n2)cc1`, for which the values for the IC50 in assay [5] and in [6] were 26.7 µM (inactive) and > 138 µM (inactive), respectively.

By AC50 is commonly meant the concentration at which the activity in the assay is half-maximal. Regarding `O=C(Nc1cccc(-c2cn3ccccc3n2)c1)C1CC1`, the 50% effective concentration (EC50) in assay [7] and in [8] was > 350 µM (not active) in each case. In addition, the AC50 in assay [9] was 31.9 µM (active).

As for `O=C(O)CSc1ncnc2sc3c(c12)CCCC3`, the concentration for half-maximal inhibition (IC50) in [5] was 8.49 µM (active); in assay [6], > 138 µM (inactive).

Regarding `Cc1ccc(OCC(=O)N2CCN(c3nnc(-c4ccccc4)c4ccccc34)CC2)cc1`, the EC50 in assay [10] was 1.92 µM (active); in assay [11], > 60 µM (not active); in [12], 3.8 µM (active). Further, in assay [13], the IC50 is > 80 µM (inactive).

In the case of `Oc1nc(Nc2ccccc2)nc(N2CCCCC2)n1`, the IC50 in assay [14] is > 29.9 µM (inactive). Further, in assay [15], the EC50 is > 29.9 µM (inactive).

As to `COc1cccc(C(=O)Nc2nnc(SCC(=O)NC3CCCC3)s2)c1`, the AC50 in [9] is 52.3 µM (active).

As for `COc1ccc(NC(=S)N2CCc3ccccc3C2)cc1OC`, the IC50 in assay [14] is > 29.9 µM (inactive). Moreover, in assay [15], the EC50 is > 29.9 µM (inactive).

Broadly, the CC50 is the concentration that lowers cell viability or growth by half. For the compound `CCOC(=O)c1cc(-c2ccccc2)sc1NC(=O)C(C)Sc1nnnn1C` (stereo not given), in assay [16], the CC50 is > 50 µM (active). Further, the concentration at half-maximal activity (AC50) in assay [9] is 7.54 µM (active).

Consider `CC1C(Br)C(=O)NC(=O)N1Cc1ccccc1` (stereo not given), for which the EC50 in assay [2], in assay [3] and in assay [4] was > 79.4 µM (not active) throughout.

Regarding `CCS(=O)(=O)N1CCN(C2CCC(c3ccccc3)CC2)CC1` (stereo not given), the EC50 in assay [2] is > 79.4 µM (not active); in [3], > 79.4 µM (not active); in assay [17], > 50 µM (active); in assay [4], > 79.4 µM (not active).

For `Cc1cc(OCc2ccccc2)ccc1C(=O)C1=C(O)C(=O)N(Cc2cccnc2)C1c1ccncc1` (stereo not given), the IC50 in [5] is 12.5 µM (inactive); in assay [6] it was > 138 µM (inactive).

`COc1cccc(NC(=S)NC(=O)c2c(Cl)c(C)nn2C)c1`: the EC50 was > 79.4 µM (not active) in assay [2], > 79.4 µM (not active) in assay [3], > 79.4 µM (not active) in assay [4] and 63.7 µM (active) in [18].

On to `CC(=O)N1CCN(c2ccc(NC(=O)/C=C/c3ccccc3)cc2)CC1`, for which the concentration for a half-maximal effect (EC50) in assay [2], in assay [3] and in [4] was > 79.4 µM (not active) throughout.

With `CSc1cc(-c2ccc(Cl)cc2)n(Cc2ccccc2)c(=O)c1C#N`, the EC50 in assay [2] is 41.4 µM (not active); in assay [3], 44.7 µM (not active); in assay [4], 80.7 µM (not active).

As to `COc1ccc(-c2nc3ccccc3c(=O)n2NC(=S)N(C)C)cc1`, the IC50 in [1] is 35.1 µM (active).

On to `COc1ccccc1N1CCN(C(=O)/C=C/c2ccc(C)cc2)CC1`, for which the EC50 in assay [19] was > 150 µM (not active); in assay [20], 107 µM (active); in assay [21], > 150 µM (not active). Also, in assay [13], the IC50 is > 80 µM (inactive).

Regarding `CCc1cc2cccc(C)c2nc1SCC(=O)N1CCN(C(=O)c2ccco2)CC1`, the IC50 in assay [22] was > 79 µM (inactive); in [5], 10.7 µM (inactive); in assay [6], 54.9 µM (inactive).

For `CC(=O)c1ccc(N2CCN(C(=O)c3cc4c(C)nc5ccccc5c4o3)CC2)cc1`, the EC50 is > 99 µM (inactive) in assay [23] and 30.7 µM (inactive) in assay [24].

On to `CC1(C)CC(=O)C(=NNc2cc3c(cc2[N+](=O)[O-])OCCO3)C(=O)C1`, for which the values for the EC50 in assay [23] and in assay [24] were > 99 µM (inactive) and 29.6 µM (inactive), respectively.

Turning to `C[C@H]1COc2c3ccc(I)cc3nn21`, the IC50 is 3.61 µM (active) in assay [5] and > 138 µM (inactive) in assay [6].
